From PMC12486440, “Design, synthesis, and in silico studies of new benzofuran–pyrazole hybrids as multi-kinase inhibitors with potential antiproliferative activity” (RSC Advances, 2025)

Experiments:
HL-60(TB) = conditions: single dose 10 μM; leukemia
[1] = tested on: NCI 60 cancer cell line panel; assay: NCI 60 full panel summary; conditions: single dose 10 μM; mean over the NCI 60 panel
CCRF-CEM = conditions: single dose 10 μM; leukemia
K-562 = conditions: single dose 10 μM; leukemia
MOLT-4 = conditions: single dose 10 μM; leukemia
RPMI-8226 = conditions: single dose 10 μM; leukemia
SR = conditions: single dose 10 μM; leukemia
EKVX = conditions: single dose 10 μM; non-small lung carcinoma
HOP-62 = conditions: single dose 10 μM; non-small lung carcinoma
HOP-92 = conditions: single dose 10 μM; non-small lung carcinoma
NCI-H226 = conditions: single dose 10 μM; non-small lung carcinoma
NCI-H522 = conditions: single dose 10 μM; non-small lung carcinoma
HCT-15 = conditions: single dose 10 μM; colon cancer
SF-295 = conditions: single dose 10 μM; CNS cancer
SF-539 = conditions: single dose 10 μM; CNS cancer
SNB-19 = conditions: single dose 10 μM; CNS cancer
SNB-75 = conditions: single dose 10 μM; CNS cancer
MALME-3M = conditions: single dose 10 μM; melanoma
M14 = conditions: single dose 10 μM; melanoma
UACC-62 = conditions: single dose 10 μM; melanoma
OVCAR-8 = conditions: single dose 10 μM; ovarian carcinoma
SK-OV-3 = conditions: single dose 10 μM; ovarian carcinoma
A498 = conditions: single dose 10 μM; renal carcinoma
ACHN = conditions: single dose 10 μM; renal carcinoma
CAKI-1 = conditions: single dose 10 μM; renal carcinoma
TK-10 = conditions: single dose 10 μM; renal carcinoma
UO-31 = conditions: single dose 10 μM; renal carcinoma
PC-3 = conditions: single dose 10 μM; prostate carcinoma
MCF7 = conditions: single dose 10 μM; breast carcinoma
BT-549 = conditions: single dose 10 μM; breast carcinoma
T-47D = conditions: single dose 10 μM; breast carcinoma
MDA-MB-468 = conditions: single dose 10 μM; breast carcinoma
A549/ATCC = conditions: single dose 10 μM; non-small lung carcinoma
NCI-H23 = conditions: single dose 10 μM; non-small lung carcinoma
KM12 = conditions: single dose 10 μM; colon cancer
SW-620 = conditions: single dose 10 μM; colon cancer
SF-268 = conditions: single dose 10 μM; CNS cancer
MDA-MB-435 = conditions: single dose 10 μM; melanoma
UACC-257 = conditions: single dose 10 μM; melanoma
OVCAR-4 = conditions: single dose 10 μM; ovarian carcinoma
OVCAR-5 = conditions: single dose 10 μM; ovarian carcinoma
786–0 = conditions: single dose 10 μM; renal carcinoma
SN12C = conditions: single dose 10 μM; renal carcinoma
HCC-2998 = conditions: single dose 10 μM; colon cancer
HCT-116 = conditions: single dose 10 μM; colon cancer
HT29 = conditions: single dose 10 μM; colon cancer
U251 = conditions: single dose 10 μM; CNS cancer
SK-MEL-2 = conditions: single dose 10 μM; melanoma
SK-MEL-28 = conditions: single dose 10 μM; melanoma
SK-MEL-5 = conditions: single dose 10 μM; melanoma

For `COc1ccc(C2=NNC(c3cn(-c4ccccc4)nc3-c3cc4ccccc4o3)C2)cc1` (stereo not shown) [3b, 3-(Benzofuran-2-yl)-4-(3-(4-methoxyphenyl)-4,5-dihydro-1H-pyrazol-5-yl)-1-phenyl-1H-pyrazole], the GI% (HL-60(TB)) was 2.83%, the “Mean GI%” value [1] was 0.8% and the GI% (CCRF-CEM) was 17.25%. The GI% (K-562) was 7.50%, the GI% (MOLT-4) was 8.04% and the GI% (RPMI-8226) was 7.55%. For the same compound, the GI% (SR) was 7.24%, the GI% (EKVX) was 0.52% and the GI% (HOP-62) was 4.32%. For the same compound, the GI% (HOP-92) was 3.27%, the GI% (NCI-H226) was 1.48% and the GI% (NCI-H522) was 0.82%. For the same compound, the GI% (HCT-15) was 1.12%, the GI% (SF-295) was 1.43% and the GI% (SF-539) was 4.09%. The GI% (SNB-19) was 2.46%, the GI% (SNB-75) was 0.28% and the GI% (MALME-3M) was 4.88%. The GI% (M14) was 4.94%, the GI% (UACC-62) was 8.16% and the GI% (OVCAR-8) was 1.00%. The GI% (SK-OV-3) was 6.45%, the GI% (A498) was 2.47% and the GI% (ACHN) was 5.79%. The GI% (CAKI-1) was 17.83%, the GI% (TK-10) was 3.17% and the GI% (UO-31) was 26.14%. It also gave a GI% (PC-3) of 12.08%, a GI% (MCF7) of 2.03% and a GI% (BT-549) of 4.37%. For the same compound, the GI% (T-47D) was 2.60% and the GI% (MDA-MB-468) was 7.03%.
In the case of “3-(5-(Benzofuran-2-yl)-1-phenyl-1H-pyrazol-3-yl)-1-phenylprop-2-en-1-one [2a]”, the GI% (HL-60(TB)) is reported as 7.64%, the “Mean GI%” value [1] is reported as 0.37% and the GI% (K-562) is reported as 5.10%. For the same compound, the GI% (MOLT-4) was 3.22%, the GI% (SR) was 17.52% and the GI% (A549/ATCC) was 4.22%. For the same compound, the GI% (EKVX) was 0.89%, the GI% (NCI-H23) was 1.16% and the GI% (NCI-H522) was 3.81%. The GI% (KM12) was 1.62%, the GI% (SW-620) was 0.70% and the GI% (SF-268) was 4.98%. For the same compound, the GI% (SF-295) was 5.84%, the GI% (SF-539) was 0.23% and the GI% (SNB-19) was 4.72%. The GI% (SNB-75) was 19.77%, the GI% (MALME-3M) was 1.12% and the GI% (M14) was 0.52%. It also gave a GI% (MDA-MB-435) of 0.51%, a GI% (UACC-257) of 5.50% and a GI% (UACC-62) of 2.28%. The GI% (OVCAR-4) was 1.64%, the GI% (OVCAR-5) was 0.37% and the GI% (786–0) was 1.14%. The GI% (A498) was 1.16%, the GI% (CAKI-1) was 15.01% and the GI% (SN12C) was 0.82%. For the same compound, the GI% (TK-10) was 5.20%, the GI% (UO-31) was 7.39% and the GI% (MCF7) was 5.38%. For the same compound, the GI% (MDA-MB-468) was 0.19%.
With `c1ccc(C2=NNC(c3cn(-c4ccccc4)nc3-c3cc4ccccc4o3)C2)cc1` (stereo not shown) [3a, 3-(Benzofuran-2-yl)-4-(3-phenyl-4,5-dihydro-1H-pyrazol-5-yl)-1-phenyl-1H-pyrazole] the GI% (HL-60(TB)) was 0.73%, the “Mean GI%” value [1] was 2.24% and the GI% (CCRF-CEM) was 12.98%. It also gave a GI% (K-562) of 6.49%, a GI% (MOLT-4) of 0.33% and a GI% (RPMI-8226) of 2.58%. For the same compound, the GI% (SR) was 15.96%, the GI% (A549/ATCC) was 3.63% and the GI% (EKVX) was 6.43%. For the same compound, the GI% (HOP-62) was 2.07%, the GI% (HOP-92) was 22.19% and the GI% (NCI-H226) was 8.13%. For the same compound, the GI% (NCI-H522) was 3.69%, the GI% (HCC-2998) was 66.78% and the GI% (HCT-116) was 99.83%. The GI% (HCT-15) was 75.31%, the GI% (HT29) was 54.87% and the GI% (KM12) was 62.60%. It also gave a GI% (SW-620) of 79.60%, a GI% (SF-295) of 9.51% and a GI% (SF-539) of 6.00%. For the same compound, the GI% (SNB-19) was 5.98%, the GI% (SNB-75) was −10.52% and the GI% (U251) was 2.33%. The GI% (MALME-3M) was 3.67%, the GI% (M14) was 0.57% and the GI% (MDA-MB-435) was −6.37%. For the same compound, the GI% (SK-MEL-2) was −6.14%, the GI% (SK-MEL-28) was 2.00% and the GI% (SK-MEL-5) was 0.18%. For the same compound, the GI% (UACC-257) was 6.06%, the GI% (UACC-62) was 7.34% and the GI% (OVCAR-5) was 3.74%. For the same compound, the GI% (SK-OV-3) was 8.93%, the GI% (A498) was 6.22% and the GI% (CAKI-1) was 11.52%. For the same compound, the GI% (SN12C) was 12.27%, the GI% (TK-10) was 10.65% and the GI% (UO-31) was 14.55%. It also gave a GI% (PC-3) of 8.08%, a GI% (MCF7) of 7.06% and a GI% (BT-549) of 0.80%. The GI% (T-47D) was 10.71%.
